In patent publication US20110136751A1, “Use of Polyphenols in the Treatment of Cancer” (Green Molecular, priority 2009, published 2011):

Columns and labels:
Test in all cases: IC50 on cell viability, Cell Counting Kit-8
Format in all cases: cell-based
MDA-MB-231 = settings: Homo sapiens; code 3, MDA-MB-231, Breast Adenocarcinoma; cell viability 120 h after administration
Method: (§1) A panel of 36 human cell lines were first tested in terms of population doubling time and growth curves to determine the conditions for further assays. The cells were also tested to determine the dose of radiation that produces 50% cell viability (D50). […] Cell viability was determined 120 h after the administration of the compounds using the Cell Counting Kit-8 (Dojindo Molecular Technologies, Inc, Rockville, Md.). In the experiments, 0.1% SDS and 1% DMSO were used as positive and negative controls, respectively. Final concentrations of the compounds used in the experiments are listed below in Table 5: […]

MML-1 = settings: Homo sapiens; code 27, MML-1, Skin Melanoma; cell viability 120 h after administration
Method: as §1

MEWO = settings: Homo sapiens; code 26, MEWO, Skin Melanoma; cell viability 120 h after administration
Method: as §1

Panc-1 = settings: Homo sapiens; code 34, Panc-1, Pancreas Carcinoma Epithiloid; cell viability 120 h after administration
Method: as §1

MNNG-HOS = settings: Homo sapiens; code 29, MNNG-HOS, Bone Osteosarcoma; cell viability 120 h after administration
Method: as §1

HT-1080 = settings: Homo sapiens; code 9, HT-1080, Fibrosarcoma; cell viability 120 h after administration
Method: as §1

A375 = settings: Homo sapiens, A-375; code 23, A375, Skin Melanoma; cell viability 120 h after administration
Method: as §1

A-673 = settings: Homo sapiens, A673; code 36, A-673, Muscle Rhabdomyosarcoma; cell viability 120 h after administration
Method: as §1

SK-N-AS = settings: Homo sapiens; code 17, SK-N-AS, Brain Neuroblastoma; cell viability 120 h after administration
Method: as §1

U-38 MG = settings: Homo sapiens; code 13, U-38 MG, Brain Gliblastoma/astrocitoma; cell viability 120 h after administration
Method: as §1

NCI-H4BO = settings: Homo sapiens; code 20, NCI-H4BO, Lung Carcinoma; cell viability 120 h after administration
Method: as §1

HBL-52 = settings: Homo sapiens; code 19, HBL-52, Brain Meningioma; cell viability 120 h after administration
Method: as §1

A-204 = settings: Homo sapiens, A204; code 35, A-204, Muscle Rhabdomyosarcoma; cell viability 120 h after administration
Method: as §1

HCT 116 = settings: Homo sapiens; code 6, HCT 116, Colorectal Carcinoma; cell viability 120 h after administration
Method: as §1

HT-29 = settings: Homo sapiens; code 8, HT-29, Colorectal Adenocarcinoma; cell viability 120 h after administration
Method: as §1

KHOS-NP = settings: Homo sapiens; code 28, KHOS-NP, Bone Osteosarcoma; cell viability 120 h after administration
Method: as §1

IMR-32 = settings: Homo sapiens; code 15, IMR-32, Brain Neuroblastoma; cell viability 120 h after administration
Method: as §1

HPAF-II = settings: Homo sapiens; code 32, HPAF-II, Pancreas Adenocarcinoma; cell viability 120 h after administration
Method: as §1

Panc 10 05 = settings: Homo sapiens, Panc1005; code 33, Panc 10 05, Pancreas Adenocarcinoma; cell viability 120 h after administration
Method: as §1

SH-SY5Y = settings: Homo sapiens; code 16, SH-SY5Y, Brain Neuroblastoma; cell viability 120 h after administration
Method: as §1

LN229 = settings: Homo sapiens, LN-229; code 11, LN229, Brain Gliblastoma; cell viability 120 h after administration
Method: as §1

Colo 201 = settings: Homo sapiens; code 5, Colo 201, Colorectal Adenocarcinoma; cell viability 120 h after administration
Method: as §1

BxPC-3 = settings: Homo sapiens; code 31, BxPC-3, Pancreas Adenocarcinoma; cell viability 120 h after administration
Method: as §1

LN-18 = settings: Homo sapiens; code 10, LN-18, Brain Gliblastoma; cell viability 120 h after administration
Method: as §1

MCF-7 = settings: Homo sapiens, MCF7; code 2, MCF-7, Breast Adenocarcinoma; cell viability 120 h after administration
Method: as §1

HCT-15 = settings: Homo sapiens; code 7, HCT-15, Colorectal Adenocarcinoma; cell viability 120 h after administration
Method: as §1

BT-20 = settings: Homo sapiens; code 1, BT-20, Breast Carcinoma; cell viability 120 h after administration
Method: as §1

SK-ES-1 = settings: Homo sapiens, SK-ES1; code 30, SK-ES-1, Bone Osteosarcoma; cell viability 120 h after administration
Method: as §1

A549 = settings: Homo sapiens; code 22, A549, Lung Carcinoma; cell viability 120 h after administration
Method: as §1

SW-872 = settings: Homo sapiens, SW872; code 18, SW-872, Connective tissue Fibrosarcoma; cell viability 120 h after administration
Method: as §1

Structure (SMILES) | IC50 (MDA-MB-231) [µM] | IC50 (MML-1) [µM] | IC50 (MEWO) [µM] | IC50 (Panc-1) [µM] | IC50 (MNNG-HOS) [µM] | IC50 (HT-1080) [µM] | IC50 (A375) [µM] | IC50 (A-673) [µM] | IC50 (SK-N-AS) [µM] | IC50 (U-38 MG) [µM] | IC50 (NCI-H4BO) [µM] | IC50 (HBL-52) [µM] | IC50 (A-204) [µM] | IC50 (HCT 116) [µM] | IC50 (HT-29) [µM] | IC50 (KHOS-NP) [µM] | IC50 (IMR-32) [µM] | IC50 (HPAF-II) [µM] | IC50 (Panc 10 05) [µM] | IC50 (SH-SY5Y) [µM] | other results
COc1cc(/C=C/c2ccc(O)cc2)cc(OC)c1 [t-PTER, trans-3,5-dimethoxy-4′-hydroxystilbene] | 62.8 | 16.9 | 39 | 50.1 | 12.3 | 17.8 | 75.3 | 5.8 | 29.1 | 29.7 | 16.6 | 33.2 | 23.4 | 45.2 | 28.4 | 25.6 | 42.8 | 55.6 | 46.3 | 31.7 | IC50 (LN229): 14.3 µM; IC50 (Colo 201): 29.8 µM; IC50 (BxPC-3): 31.1 µM; IC50 (LN-18): 18.1 µM; IC50 (MCF-7): 39.4 µM; IC50 (HCT-15): 49.5 µM; IC50 (BT-20): 96.9 µM; IC50 (SK-ES-1): 42.7 µM; IC50 (A549): 25.8 µM; IC50 (SW-872): 25.8 µM
O=c1c(O)c(-c2ccc(O)c(O)c2)oc2cc(O)cc(O)c12 [QUER, quercetin] | 20.7 | 10.8 | 8.59 | 62.5 | 9.91 | 5.54 | 19.6 | 4.09 | 19.8 | 4.83 | 10.1 | 22.8 | 18.1 | 56.9 | 18.7 | 15.7 | 20.2 | 20.2 | 23 | 4.38 | IC50 (LN229): 8.12 µM; IC50 (Colo 201): 18.1 µM; IC50 (BxPC-3): 15.9 µM; IC50 (LN-18): 9.72 µM; IC50 (MCF-7): 19.7 µM; IC50 (HCT-15): 12.4 µM; IC50 (BT-20): 9.21 µM; IC50 (SK-ES-1): 8.2 µM; IC50 (A549): 13.4 µM; IC50 (SW-872): 3.51 µM
Oc1ccc(/C=C/c2cc(O)cc(O)c2)cc1 [RI, trans-3,5,4′-trihydroxystilbene, reference compound] | 15.1 | 10.3 | 17.1 | 33 | 11.7 | 10.2 | 24.9 | 6.73 | 68.3 | 6.29 | 11.5 | 29.1 | 19 | 31.4 | 27.9 | 20 | 43 | 86.1 | 24.2 | 26.1 | IC50 (LN229): 11.2 µM; IC50 (Colo 201): 37.4 µM; IC50 (BxPC-3): 13.6 µM; IC50 (LN-18): 28.4 µM; IC50 (MCF-7): 49.9 µM; IC50 (HCT-15): > 100 µM; IC50 (BT-20): 66 µM; IC50 (SK-ES-1): 27.2 µM; IC50 (A549): 16.3 µM; IC50 (SW-872): 81.1 µM
